# Measured values published in PMC5428013, “Peptide-Au Clusters Induced Tumor Cells Apoptosis via Targeting Glutathione Peroxidase-1: The Molecular Dynamics Assisted Experimental Studies” (Scientific Reports, 2017).
# “Also recorded” adds a separate entry of the source.
# What was measured:
# Format in all cases: cell-based, human
# A549 cells [1] = test: Cell viability assay (CCK-8), A549; details: 48 h; for cell viability suppression by peptide-Au clusters (words): A549, Au dose 0, 50, 100, 200, 400, 800 µM
# Method: Briefly, cells were prior cultured on 96-well plates (at the density of 5 × 10^3 cells/well) for 24 h to allow cells attachment. The cells were treated with different doses of these free peptides (0, 1, 4, 16, 64, 256, 1024 µM) and peptide-Au clusters (0, 50, 100, 200, 400, 800 µM in Au dose) for 48 h, respectively. The cells were washed three times with PBS and then incubated with fresh growth medium containing 10% (v/v) CCK-8 reagent for 1 h at 37 °C for cell viability assay. The absorbance was measured at 450 nm by using a microplate reader (SpectraMAX M2, Sunnyvale, California). Cell viability of untreated cells was set as 100%, and that of treated cells were expressed as a relative percentage of untreated cells. All data were shown as mean percentages ± standard deviation from three independent experiments.
# GPx-1 [2] = test: GPx-1 expression in A549 cells, western blotting; details: Au dose 0, 100, 200, 400, 800 μM, 48 h
# Method: The expression of GPx-1, caspase-3 and PARP from Au25P1_9 treated A549 cells were analyzed by western blotting. A549 cells were prior seeded on 6-well plate (at the density of 1 × 10^5 cells/well) for 24 h. Then the medium was discarded and fresh culture medium with Au25P1_9 at different doses was added to make cells exposed to final Au doses at 0, 100, 200, 400 and 800 μM, respectively. After another 48 h incubation, the cells were harvested and lysed by cell lysis buffer for Western and IP (containing 20 mM Tris-HCl, pH7.5, 150 mM NaCl, 1% Triton X-100, sodium pyrophosphate, β-glycerophosphate, EDTA, Na3VO4 and leupeptin), protease inhibitor cocktail tablet and 1 mM PMSF for 15 min on a shaker at 4 °C. The lysed cells were collected and centrifuged for 15 min at 12,000 g to get total protein of cells. The protein dose of each sample was prior quantified, and then loading buffer was added. After boiling for 5 min, the protein samples with equal amount were separated on 12% SDS polyacrylamide gel electrophoresis and then transferred onto the polyvinylidene difluoride (PVDF) membrane. Membrane was blocked by 5% nonfat dried milk prepared in tris(hydroxymethyl)amin omethane-NaCl-Tween 20 (TBST) at room temperature for 1 h, and then incubated with primary antibodies specific to β-actin, Caspase-3, PARP and GPx-1 at 4 °C overnight, respectively. […]
# GPx-1 [3] = test: Cellular GPx-1 activity in treated A549 cells; details: 48 h
# Method: A549 cells were prior seeded on 6-well plate (at the density of 1 × 10^5 cells/well) for 24 h. Then the medium was discarded and fresh culture medium with Au25P1_9 at different doses was added to make cells exposed to final Au doses at 0, 100, 200, 400 and 800 μM, respectively. After another 48 h incubation, the cells were washed thrice with PBS and lysed by cell lysis buffer containing 1 mM PMSF for 15 min on a shaker at 4 °C. The lysed cells were collected and centrifuged for 20 min at 12,000 g to get total protein of cells. The protein dose of each sample was quantified by BCA Protein Assay Kit and the GPx-1 activity of peptide-Au clusters treated A549 cells was measured by GPx Activity Colorimetric Assay Kit, respectively. For the control experiments, a series of Au doses of Au25P1_9 at 0, 5, 25, 100, 400 μM were incubated with the GPx-1 containing cell lysate of A549 cells for 10 min and the GPx-1 activity of theses samples was also measured. The GPx-1 activity of untreated samples was set as 100%, and that of peptide-Au clusters treated samples were expressed as a relative percentage of untreated ones.
# A549 cells [4] = test: Apoptosis evaluation, Annexin V-FITC/PI dual staining; details: 48 h
# Method: Apoptosis detection with Annexin V-FITC/PI fluorescence dual staining was carried out by flow cytometry. Briefly, about 2 mL of 1 × 10^5 cells/mL of A549 cells were seeded in 6-well plate for 24 h before treatment with Au25P1_9 at different Au doses. The cells were treated with Au25P1_9 (Au dose at 0, 100, 200, 400 and 800 μM) for 48 h, respectively. Then culture medium and cells in each well were collected and centrifuged at 1200 rpm for 3 min. The supernatant was discarded and the cells were washed twice with PBS. 195 μL Annexin V-FITC binding buffer was added to re-suspend the cells at a dose of ~5 × 10^5 cells/mL in 1.5 mL Eppendorf tube. 5 μL Annexin V-FITC and 10 μL PI stains were added into each cell suspension, respectively. The tubes were incubated at room temperature under darkness for exactly 15 min. The fluorescence of the cells was determined immediately with flow cytometer. Cells at the early stage of apoptotic process were stained with the Annexin V-FITC alone. Necrotic cells were stained by both the Annexin V-FITC and PI. […] So, the percentage of apoptotic and necrosis cells can be analyzed by Cflow software.
sequence,measurement,setting,value
"CCYGGPEEEEEVG [Au25P1_9, Au25 cluster coated by nine P1 peptides (…)]",cell viability suppression by peptide-Au clusters (words),A549 cells [1],can suppress cell viability
same,cell viability suppression by peptide-Au clusters (words),A549 cells [1]; listed as Au25P19,exhibits the best suppression capacity for A549 cell viability
same,cell viability (relative to untreated = 100%),"A549 cells [1]; A549, Au dose of 800 μM, CCK-8, mean from three independent experiments",40%
same,GPx-1 expression level,GPx-1 [2],GPx-1 level remains stable
same,cellular GPx-1 activity (relative to untreated = 100%),GPx-1 [3]; 800 μM of Au,27%
same,cellular GPx-1 activity,"GPx-1 [3]; Au dose 0, 100, 200, 400, 800 μM",significantly decreases as Au25P1_9 dose increase; also recorded: the most effective candidate for suppression of GPx-1 activity in buffer and cells
same,cell apoptosis ratio,"A549 cells [4]; A549, Au25P1_9 dose 100 μM (Au)",5.8%
same,cell apoptosis ratio,"A549 cells [4]; A549, Au25P1_9 dose 800 μM (Au)",15.2%
same,cell apoptosis dose dependence,"A549 cells [4]; A549, Au dose 0, 100, 200, 400, 800 μM",dose-dependent manner
